For data set [1], the system named is LC3, p62, TH and α-synuclein in SH-SY5Y cells. Put plainly: Western blot of LC3, p62, TH and α-synuclein in MPP^+-treated SH-SY5Y cells (in vitro PD model). Type of data set: cell-based, human. Here is the method:
Human neuroblastoma (SH-SY5Y) cells were purchased from the American Type Culture Collection (Manassas, Va., USA) and cultured in DMEM supplemented with 10% heat-inactivated FBS and 1% penicillin/streptomycin. The SH-SY5Y cells were cultured at 37° C. in a humid atmosphere containing 5% CO2. […] The SH-SY5Y cells were transfected with AMPK siRNA and then administered with AKNS-2 at 36 hours after siRNA transfection. […] After 24 hours from treatment with the samples, the SH-SY5Y cells were recovered and used for subsequent analysis. At 24 hours after drug treatment, the culture medium was removed from the 6-well plate, and the cells were gently washed once with cold saline. Subsequently, 1 mL of cold saline was added to each well, and cells attached to the bottom were floated by rubbing the bottom with a 1 mL pipette. The suspension was collected in a 1.5 mL tube and centrifuged at 4° C. at 13000×g for 5 minutes. After removing a supernatant, 50 μL of a RIPA lysis buffer including a protease inhibitor cocktail (Roche, Mannheim, Germany) and purchased from Cell Signaling Technology (Danvers, Mass., USA) was added to the cell pellet. After shaking the mixture at 4° C. for 30 minutes, the obtained cells were centrifuged at 4° C. at 13000×g for 20 minutes. A supernatant was collected therefrom, and a concentration of proteins was measured using a standard curve constructed using BSA by the Bradford method. Then, the supernatant was diluted with a loading buffer and heated at 99° C. for 5 minutes. Resultant cells were used in a subsequent western blot analysis. Protein markers contained in lysates of the SH-SY5Y cells and brain tissue of the mice (SNpc and ST) were measured by western blot analysis. Briefly, after determining a concentration, a protein sample (20 μg) was separated by 8%, 10%, or 15% sodium dodecyl sulfate-polyacrylamide gel electrophoresis (SDS-PAGE). Then, proteins separated on the gel were transferred to a polyvinylidene fluoride (PVDF) membrane for 45 minutes using a Trans-Blot Turbo Transfer System (Bio-Rad, USA). […] The membrane was further incubated with monoclonal primary antibodies derived from rabbits (anti-GAPDH, anti-AMPK, anti-p-AMPK, anti-ULK, anti-p-ULK555, anti-Erk, anti-p-Erk, anti-mTOR, anti-p-mTOR, anti-LC3B, anti-TH, and anti-α-synuclein antibodies). The primary antibodies were diluted in a blocking buffer at a ratio of 1:1000 and incubated overnight at 4° C. On the second day, the membrane was washed with TBST three times (10 minutes each) and incubated at room temperature in a horseradish peroxidase-conjugated goat anti-rabbit IgG secondary antibody (diluted in a blocking buffer at a ratio of 1:2000). After incubating in the secondary antibody for 1 hour, the membrane was washed for 30 minutes. The protein blots on the membrane were developed using an ECL detection kit and visualized using an LAS-4000 mini system (Fujifilm, Japan). The intensity of the protein blots was quantified using Multi Gauge software (Fujifilm, Japan).
For orientation: In western blotting, separated proteins are transferred to a membrane and probed.

Another data set relates to SH-SY5Y cells. Put plainly: MTT assay to measure cell viability. The note with it: 24 hours. The class given is cell-based, human. The protocol:
Cell viability was detected using an MTT assay kit (Z-Cytox). Briefly, the SH-SY5Y cells were seeded on a 96-well plate at a density of 2×10^4 cells/well with 100 μL of a culture medium. After 24 hours, the SH-SY5Y cells were treated with AKNS-2 and/or MPP^+ having desired concentrations to identify cytotoxicity of AKNS-2 and MPP^+. After 24 hours, 10 μL of the MTT reagent was added to each well of the 96-well plate including the cells. Absorbance was measured at 450 nm using a microplate spectrophotometer (BioTek, Vt., USA). […] The next day, absorbance was measured at 1 hour after adding the MTT reagent thereto.
For orientation: Tetrazolium dyes change colour on reduction, which living cells bring about.

The structures appear in SMILES notation. Entries after “also recorded” stand apart in the source; their conditions may differ.

As to `C[C@@H]1O[C@@H](O[C@@H]2[C@@H](O)[C@H](O[C@@H]3[C@@H](O[C@@H]4OC[C@@H](O)[C@H](O)[C@H]4O)[C@@H](O)[C@H](O[C@H]4[C@H](OC(=O)[C@]56CCC(C)(C)C[C@H]5C5=CC[C@@H]7[C@@]8(C)C[C@H](O)[C@H](O[C@@H]9O[C@H](CO)[C@@H](O)[C@H](O[C@@H]%10OC[C@@H](O)[C@H](O)[C@H]%10O)[C@H]9O)[C@@](C)(CO)[C@@H]8CC[C@@]7(C)[C@]5(C)C[C@H]6O)OC[C@H](O)[C@@H]4O)O[C@H]3C)OC[C@H]2O)[C@H](O)[C@H](O)[C@H]1O` [Compound 1, 3-O-β-D-xylopyranosyl-(1→3)-β-D-glucopyranosylpolygalacic acid 28-O-α-L-rhamnopyranosyl-(1→3)-β-D-xylopyranosyl-(1→4)-[β-D-xylopyranosyl-(1→3)]-α-L-rhamnopyranosyl-(1→2)-α-L-arabinopyranosyl ester], in data set [1] (AKNS-2 (5 μM and 10 μM) + 2 mM MPP^+ vs MPP^+ alone), the “expression of TH” value is “the MPP^+-induced decrease in expression of TH was reversed; also recorded: the decreased expression of TH may be restored; also recorded: offset toxicity of MPP^+ and reversed the expression of TH”. Besides, the “expression of α-synuclein” value in data set [1] (AKNS-2 + 2 mM MPP^+ vs MPP^+ alone) is “canceled out the effects of MPP^+ and inhibited the expression of α-synuclein; also recorded: the increased expression level of α-synuclein was decreased”. For the same molecule, the “cell viability damaged by MPP^+ (MTT)” value in the data set with SH-SY5Y cells (AKNS-2 5 μM and 10 μM 1 hour before 2 mM MPP^+) is given as “significantly improved cell viability damaged by 2 mM MPP^+; also recorded: significantly enhanced cell viability that had decreased by MPP^+; also recorded: reversed the effects of MPP^+ on cell viability”. The “cytotoxicity (cell viability, MTT)” value with SH-SY5Y cells (AKNS-2 alone, up to 40 μM) is on record as “did not significantly affect cytotoxicity”.

Values taken from US12234257B2, “Triterpene saponin derivative and use thereof” (KOREA INSTITUTE OF SCIENCE AND TECHNOLOGY, priority 2020, dated 2025).
